Test results as given in US7879857B2, “6-substituted 2-quinolinones and 2-quinoxalinones as poly (adp-ribose) polymerase inhibitors” (Janssen Pharmaceutica NV, priority 2003, dated 2011).

What was measured:
PARP-1 enzyme [1] = target: T1, PARP-1 enzyme (Homo sapiens, UniProt P09874); experiment: In vitro Scintillation Proximity Assay (SPA) for PARP-1 inhibitory activity; assay type: biochemical; conditions: [3H]-NAD+ as ADP-ribosyl donor, biotinylated histones, nicked DNA; read-out: In vitro SPA pIC50 (converted)
T1 construct: made in house
T1 sequence (P09874 whole entry): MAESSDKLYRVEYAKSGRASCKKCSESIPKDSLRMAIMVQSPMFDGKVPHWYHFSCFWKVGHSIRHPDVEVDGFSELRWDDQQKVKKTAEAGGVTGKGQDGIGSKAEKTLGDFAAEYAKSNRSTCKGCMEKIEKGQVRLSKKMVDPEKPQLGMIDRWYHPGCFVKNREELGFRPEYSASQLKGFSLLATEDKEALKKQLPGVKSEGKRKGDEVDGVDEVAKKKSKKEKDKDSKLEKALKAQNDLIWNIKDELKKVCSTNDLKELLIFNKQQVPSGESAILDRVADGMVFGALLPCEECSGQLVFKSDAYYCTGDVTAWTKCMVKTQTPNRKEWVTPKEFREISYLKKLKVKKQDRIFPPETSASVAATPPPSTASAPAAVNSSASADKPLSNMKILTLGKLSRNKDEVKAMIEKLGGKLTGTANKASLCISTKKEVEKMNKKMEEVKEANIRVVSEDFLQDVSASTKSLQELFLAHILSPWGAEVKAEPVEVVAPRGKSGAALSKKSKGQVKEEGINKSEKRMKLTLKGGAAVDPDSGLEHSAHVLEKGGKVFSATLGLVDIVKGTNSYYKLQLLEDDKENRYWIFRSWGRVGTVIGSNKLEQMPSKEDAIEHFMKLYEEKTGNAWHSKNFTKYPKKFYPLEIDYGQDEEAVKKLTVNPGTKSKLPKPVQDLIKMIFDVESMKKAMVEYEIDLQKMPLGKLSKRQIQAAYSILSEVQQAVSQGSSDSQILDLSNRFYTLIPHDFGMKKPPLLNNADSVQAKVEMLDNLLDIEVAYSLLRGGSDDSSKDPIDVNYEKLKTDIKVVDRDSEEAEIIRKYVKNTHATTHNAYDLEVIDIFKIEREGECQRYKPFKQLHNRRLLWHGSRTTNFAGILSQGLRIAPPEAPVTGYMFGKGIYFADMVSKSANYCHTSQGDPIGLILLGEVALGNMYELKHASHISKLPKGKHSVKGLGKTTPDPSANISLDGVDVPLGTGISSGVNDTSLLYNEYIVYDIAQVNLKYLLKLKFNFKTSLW
Procedure: Pharmacological Example In Vitro Scintillation Proximity Assay (SPA) for PARP-1 Inhibitory Activity
Compounds of the present invention were tested in an in vitro assay based on SPA technology (proprietary to Amersham Phannacia Biotech).
In principle, the assay relies upon the well established SPA technology for the detection of poly(ADP-ribosyl)ation of biotinylated target proteins, i.e histones. This ribosylation is induced using nicked DNA activated PARP-1 enzyme and [^3H]-nicotinamide adenine dinucleotide ([^3H]-NAD^+) as ADP-ribosyl donor.
As inducer of PARP-1 enzyme activity, nicked DNA was prepared. For this, 25 mg of DNA (supplier: Sigma) was dissolved in 25 ml DNAse buffer (10 mM Tris-HCI, pH 7.4; 0.5 mg/ml Bovine Serum Albumine (BSA); 5 MM MgCl2.6H2O and 1 mM KCl) to which 50 μl DNAse solution (1 mg/ml in 0.15 M NaCl) was added. After an incubation of 90 min. at 37° C., the reaction was terminated by adding 1.45 g NaCl, followed by a further incubation at 58° C. for 15 min. The reaction mixture was cooled on ice and dialysed at 4° C. for respectively 1.5 and 2 hours against 1.51 of 0.2 M KCl, and twice against 1.51 of 0.01 M KCl for 1.5 and 2 h respectively. The mixture was aliquoted and stored at −20° C. Histones (1 mg/ml, type II-A, supplier: Sigma) were biotinylated using the biotinylation kit of Amersham and stored aliquoted at −20° C. A stock solution of 100 mg/ml SPA poly(vinyl toluene) (PVT) beads (supplier: Amersham) was made in PBS. A stock solution of [^3H]-NAD^+ was made by adding 120 μl of [^3H]-NAD^+ (0.1 mCi/ml, supplier: NEN) to 6 ml incubation buffer (50 mM Tris/HCl, pH 8; 0.2 mM DTT; 4 mM MgCl2). A solution of 4 mM NAD^+ (supplier: Roche) was made in incubation buffer (from a 100 mM stock solution in water stored at −20° C.). The PARP-1 enzyme was produced using art known techniques, i.e. cloning and expression of the protein starting from human liver cDNA. Information concerning the used protein sequence of the PARP-1 enzyme including literature references can be found in the Swiss-Prot database under primary accession number P09874. Biotinylated histones and PVT-SPA beads were mixed and pre-incubated for 30 min. at room temperature. PARP-1 enzyme (concentration was lot dependent) was mixed with the nicked DNA and the mixture was pre-incubated for 30 min. at 4° C. Equal parts of this histones/PVT-SPA beads solution and PARP-1 enzyme/DNA solution were mixed and 75 μl of this mixture together with 1 μl of compound in DMSO and 25 μl of [^3H]-NAD^+ was added per well into a 96-well microtiterplate. The final concentrations in the incubation mixture were 2 μg/ml for the biotinylated histones, 2 mg/ml for the PVT-SPA beads, 2 μg/ml for the nicked DNA and between 5-10 μg/ml for the PARP-1 enzyme. After incubation of the mixture for 15 min. at room temperature, the reaction was terminated by adding 100 μl of 4 mM NAD^+ in incubation buffer (final concentration 2 mM) and plates were mixed.
The beads were allowed to sediment for at least 15 min. and plates transferred to a TopCountNXTT™ (Packard) for scintillation counting, values were expressed as counts per minute (cpm). For each experiment, controls (containing PARP-1 enzyme and DMSO without compound), a blank incubation (containing DMSO but no PARP-1 enzyme or compound) and samples (containing PARP-1 enzyme and compound dissolved in DMSO) were run in parallel. All compounds tested were dissolved and eventually further diluted in DMSO. […] The control sample represented maximal PARP-1 enzyme activity. For each sample, the amount of cpm was expressed as a percentage of the mean cpm value of the controls. When appropriate, IC50-values (concentration of the drug, needed to reduce the PARP-1 enzyme activity to 50% of the control) were computed using linear interpolation between the experimental points just above and below the 50% level. Herein the effects of test compounds are expressed as pIC50(the negative log value of the IC50-value). […]

PARP-1 enzyme [2] = target: T1, PARP-1 enzyme; experiment: In vitro filtration assay for PARP-1 inhibitory activity; assay type: biochemical; conditions: [32P]-NAD as ADP-ribosyl donor, histones, nicked DNA; read-out: In vitro filtration assay pIC50 (converted)
Procedure: In Vitro Filtration Assay for PARP-1 Inhibitory Activity
Compounds of the present invention were tested in an in vitro filtration assay assessing PARP-1 activity (triggered in the presence of nicked DNA) by means of its histone poly (ADP-ribosyl)ation activity using [^32P]-NAD as ADP-ribosyl donor. The radioactive ribosylated histones were precipitated by trichIoroacetic acid (TCA) in 96-well filterplates and the incorporated [^32P] measured using a scintillation counter
A mixture of histones (stock solution: 5 mg/ml in H2O), NAD^+ (stock solution: 100 mM in H2O), and [^32P]-NAD^+ in incubation buffer (50 mM Tris/HCl, pH 8; 0.2 mM DTT; 4 mM MgCl2) was made. A mixture of the PARP-1 enzyme (5-10 μg/ml) and nicked DNA was also made. The nicked DNA was prepared as described in the in vitro SPA for PARP-1 inhibitory activity. Seventy-five μl of the PARP-1 enzyme/DNA mixture together with 1 μl of compound in DMSO and 25 μl of histones-NAD^+/[^32P]-NAD^+ mixture was added per well of a 96-well filterplate (0.45 μm, supplier Millipore). The final concentrations in the incubation mixture were 2 μg/ml for the histones, 0.1 mM for the NAD^+, […] (0.5 μC) for the [^32P]-NAD^+ and 2 μg/ml for the nicked DNA. Plates were incubated for 15 min. at room temperature and the reaction was terminated by the addition of 10 μl ice cold 100% TCA followed by the addition of 10 μl ice-cold BSA solution (1% in H2O). The protein fraction was allowed to precipitate for 10 min. at 4° C. and plates were vacuum filtered. The plates were subsequently washed with, for each well, 1 ml of 10% ice cold TCA, 1 ml of 5% ice cold TCA and 1 ml of 5% TCA at room temperature. Finally 100 μl of scintillation solution (Microscint 40, Packard) was added to each well and the plates were transferred to a TopCountNXT™ (supplier: Packard) for scintillation counting and values were expressed as counts per minute (cpm). For each experiment, controls (containing PARP-1 enzyme and DMSO without compound), a blank incubation (containing DMSO but no PARP-1 enzyme or compound) and samples (containing PARP-1 enzyme and compound dissolved in DMSO) were run in parallel. All compounds tested were dissolved and eventually further diluted in DMSO. […] The control sample represented maximal PARP-1 enzyme activity. For each sample, the amount of cpm was expressed as a percentage of the mean cpm value of the controls. When appropriate, IC50-values (concentration of the drug, needed to reduce the PARP-1 enzyme activity to 50% of the control) were computed using linear interpolation between the experimental points just above and below the 50% level. Herein the effects of test compounds are expressed as pIC50 (the negative log value of the IC50-value). As a reference compound, 4-amino-1,8-naphthalimide was included to validate the filtration assay.

[3] = rabbits, cited from earlier work
[4] = rats with hapten-induced colitis; cited from earlier work

Structure (SMILES) | IC50 (PARP-1 enzyme [1]) | IC50 (PARP-1 enzyme [2]) | further results
Cc1cc2cc(C(O)(CCN(C)C)c3ccccn3)ccc2[nH]c1=O (stereo not shown) [Compound 16] | 0.47 µM | 2.16 µM | 
NC(=O)c1cccc(N)c1 [3-amino-benzamide] |  |  | reduction in infarct size in the heart ([3]; single injection 10 mg/kg, one minute before occlusion or one minute before reperfusion): 32-42%; effect on inflammatory response, morphology and energetic status of the distal colon [4]: reduced the inflammatory response and restored the morphology and the energetic status of the distal colon
CCc1cc2cc(C(O)C(CC)CC)ccc2[nH]c1=O (stereo not shown) [Compound 5] | 0.156 µM | 0.638 µM | 
Cc1cc2cc(C(C)NC=O)ccc2[nH]c1=O (stereo not shown) [Compound 18] | 1.02 µM | 6.37 µM | 
CC(C)C(c1ccc2[nH]c(=O)c(-c3ccsc3)nc2c1)n1ccnc1 (stereo not shown) [Compound 24, 6-[1-(1H-imidazol-1-yl)-2-methylpropyl]-3-(3-thienyl)-2(1H)-quinoxalinone] | 0.561 µM | 4.86 µM | 
Oc1cccc2c(O)nccc12 [1,5-dihydroxyisoquinoline] |  |  | reduction in infarct size ([3]; single injection 1 mg/kg): 38-48%
CC(C)C(c1ccc2[nH]c(=O)c(-c3cccs3)nc2c1)n1cncn1 (stereo not shown) [Compound 22, 6-[2-methyl-1-(1H-1,2,4-triazol-1-yl)propyl]-3-(2-thienyl)-2(1H)-quinoxalinone] | 0.838 µM | 4.33 µM | 
CCCCC(c1ccc2[nH]c(=O)c(C)nc2c1)n1ccnc1 (stereo not shown) [Compound 25, 6-[1-(1H-imidazol-1-yl)pentyl]-3-methyl-2(1H)-quinoxalinone] | 1 µM | 4.63 µM | 
CCc1nc2cc(C(NC=O)C(C)C)ccc2[nH]c1=O (stereo not shown) [Compound 1] | 0.221 µM |  | melting point: 204 °C
Cc1cc2cc(C(NCCCN3CCCCC3)C(C)C)ccc2[nH]c1=O (stereo not shown) [Compound 15] | 1.26 µM | 3.62 µM | 
CC(C)C(c1ccc2[nH]c(=O)c(-c3ccsc3)nc2c1)n1cncn1 (stereo not shown) [Compound 23, 6-[2-methyl-1-(1H-1,2,4-triazol-1-yl)propyl]-3-(thienyl)-2(1H)-quinoxalinone] | 1.43 µM | 7.13 µM | 

Now from value to compound, other results behind:

IC50 (PARP-1 enzyme [1]) | IC50 (PARP-1 enzyme [2]) | Structure (SMILES) | further results
0.212 µM | 0.773 µM | CCc1cc2cc(C(O)CN(C)C)ccc2[nH]c1=O (stereo not shown) [Compound 7] | melting point: 131 °C
0.368 µM |  | CCc1nc2cc(C(NCCCN3CCCCC3)C(C)C)ccc2[nH]c1=O (stereo not shown) [Compound 13] | 
0.327 µM |  | CCc1cc2cc(CCNCCCN3CCCCC3)ccc2[nH]c1=O [Compound 11] | 
0.259 µM | 2.59 µM | CCc1cc2cc(C(=O)CN(C)C)ccc2[nH]c1=O [Compound 3] | melting point: 180 °C
0.227 µM | 1.1 µM | CCc1nc2cc(C(C(C)C)n3ccnc3)ccc2[nH]c1=O (stereo not shown) [Compound 21, 3-ethyl-6-[1-(1H-imidazol-1-yl)-2-methylpropyl]-2(1H)-quinoxalinone] | 
0.198 µM | 1.47 µM | CCc1cc2cc(C(O)C3CC=CCC3)ccc2[nH]c1=O (stereo not shown) [Compound 17] | 
0.769 µM | 10 µM | Cc1cc2cc(C(CCc3ccccc3)NC=O)ccc2[nH]c1=O (stereo not shown) [Compound 6] | melting point: 221.3 °C
0.746 µM |  | CCc1nc2cc(C(O)C(C)C)ccc2[nH]c1=O (stereo not shown) [Compound 19] | 
1.04 µM | 7.57 µM | Cc1cc2cc(C(CCN(C)C)c3ccco3)ccc2[nH]c1=O (stereo not shown) [Compound 4] | 
0.438 µM | 2.28 µM | CCc1nc2cc(C(C(C)C)n3cncn3)ccc2[nH]c1=O (stereo not shown) [Compound 20, 3-ethyl-6-[2-methyl-1-(1H-1,2,4-triazol-1-yl)propyl]-2(1H)-quinoxalinone] | 
0.687 µM |  | CCc1cc2cc(CCNCCCN(C)Cc3ccccc3)ccc2[nH]c1=O [Compound 12] | 
0.743 µM |  | CCc1nc2cc(C(=O)C(C)C)ccc2[nH]c1=O [Compound 9] | 
0.74 µM |  | CCc1nc2cc(C(NCCN3CCC(C(=O)c4ccc(F)cc4)CC3)C(C)C)ccc2[nH]c1=O (stereo not shown) [Compound 10] | 
0.522 µM | 5.35 µM | Cc1cc2cc(C(C(C)C)n3ccnc3)ccc2[nH]c1=O (stereo not shown) [Compound 2] | melting point: 211.4 °C
0.975 µM |  | CCOC(=O)Cc1ccc2[nH]c(=O)c(CC)nc2c1 [Compound 8] | 
0.499 µM |  | CCc1nc2cc(C(NCCCN(C)Cc3ccccc3)C(C)C)ccc2[nH]c1=O (stereo not shown) [Compound 14] | 
